# Assays:
# M-NFS-60 cells = experiment: M-NFS-60 cell proliferation assay (resazurin); type: cell-based; settings: 67 h incubation
# Method: M-NFS-60 cells (catalog #CRL-1838) were obtained from the American Type Culture Collection (ATCC, Manassas, Va.). Briefly, cells were grown in suspension in RPMI 1640 medium supplemented with 10% characterized fetal bovine serum (Invitrogen, Carlsbad, Calif.), 0.05 mM 2-mercaptoethanol, and 20 ng/mL mouse recombinant macrophage colony stimulating factor (M-CSF) at 37° C., 5% CO2, and 95% humidity. Cells were allowed to expand until reaching saturation at which point they were subcultured or harvested for assay use.
# M-NFS-60 Cell Proliferation Assay
# A serial dilution of test compound was dispensed into a 384-well black clear bottom plate (Corning, Corning, N.Y.). Two thousand five hundred cells were added per well in 50 μL complete growth medium. Plates were incubated for 67 h at 37° C., 5% CO2, and 95% humidity. At the end of the incubation period 10 μL of a 440 μM solution of resazurin (Sigma, St. Louis, Mo.) in PBS was added to each well and incubated for an additional 5 h at 37° C., 5% CO2, and 95% humidity. Plates were read on a Synergy2 reader (Biotek, Winooski, Vt.) using an excitation of 540 nm and an emission of 600 nm. IC50 values were calculated from a series of percent inhibition values determined at a range of inhibitor concentrations using software routines as implemented in the GraphPad Prism software package.
# osteoclast precursors = experiment: Osteoclast tartrate-resistant acid phosphatase assay; type: cell-based; settings: RANKL and M-CSF, 7-14 days, tartrate-resistant acid phosphatase activity
# Method: Osteoclast Tartrate-Resistant Acid Phosphatase Assay
# A serial dilution of test compound was dispensed into a 384-well black clear bottom plate (Nalge Nunc International, Rochester, N.Y.). Compound was diluted by the addition of DMEM media supplemented with 10% characterized fetal bovine serum (Invitrogen, Carlsbad, Calif.). Diluted compound was transferred to a 384-well black clear bottom plate. Two-thousand five hundred osteoclast precursors (Lonza, Walkersville, Md.) were added per well in growth media containing Receptor Activator of Nuclear Factor Kappa-beta ligand (RANKL) and M-CSF (R&D Systems, Minneapolis, Minn.). Plates were incubated for 7-14 days at 37 degrees Celsius, 5% CO2, and 95% humidity to allow differentiation of osteoclast precursors. At the end of the incubation period, 10 μL of supernatant from each well was transferred to a clear 384-well plate. Tartrate-resistant acid phosphatase activity in the supernatant samples was determined using an acid phosphatase assay kit (Sigma, St. Louis, Mo.). Absorbance was measured at 550 nm using a plate reader. Data was analyzed using Prism software (Graphpad, San Diego, Calif.) to calculate IC50 values.
# [1] = target: T1, unphosphorylated PDGFRβ kinase (uPDGFRβ, Seq. ID No. 3) (Homo sapiens, UniProt P09619); experiment: uPDGFRβ kinase enzymatic assay (pyruvate kinase/lactate dehydrogenase coupled); type: biochemical; settings: ATP 500 μM, rate 1.5 to 2.5 h
# T1 construct: purchased DeCode
# Method: Unphosphorylated PDGFRβ (uPDGFRβ) Kinase (Seq. ID No. 3) Assay
# Activity of unphosphorylated PDGFRβ kinase (uPDGFRβ, Seq. ID No. 3) was determined by following the production of ADP from the kinase reaction with ATP and poly E4Y as substrates through coupling with the pyruvate kinase/lactate dehydrogenase system (e.g., Schindler et al. Science (2000) 289: 1938-1942). In this assay, the oxidation of NADH (thus the decrease at A340 nm) was continuously monitored spectrophometrically. The reaction mixture (100 μL) contained PDGFRβ (DeCode, 15.7 nM), polyE4Y (2.5 mg/mL), MgCl2 (10 mM), pyruvate kinase (4 units), lactate dehydrogenase (0.7 units), phosphoenol pyruvate (1 mM) and NADH (0.28 mM) and ATP (500 μM) in a 90 mM Tris buffer containing 0.2% octyl-glucoside and 1% DMSO, at pH 7.5. The inhibition reaction was started by mixing serial diluted test compound with the above reaction mixture. The absorption at 340 nm was monitored continuously for 4 h at 30° C. on a Polarstar Optima or Synergy 2 plate reader. The reaction rate was calculated using the 1.5 to 2.5 h time frame. Percent inhibition was obtained by comparison of reaction rate with that of a control (i.e. with no test compound). IC50 values were calculated from a series of percent inhibition values determined at a range of inhibitor concentrations using software routines as implemented in the GraphPad Prism software package.
# [2] = target: T2, unphosphorylated c-KIT kinase (uKIT, Seq. ID no. 2) (Homo sapiens, UniProt P10721); experiment: uKit kinase enzymatic assay (pyruvate kinase/lactate dehydrogenase coupled); type: biochemical; settings: ATP 2000 μM, rate 3 to 4 h
# T2 construct: uKit with N-terminal GST fusion used for screening
# Method: uKit Kinase (Seq. ID No. 2) Assay
# Activity of unphosphorylated c-KIT kinase (uKIT, Seq. ID no. 2) was determined by following the production of ADP from the KIT kinase reaction with ATP and poly E4Y as substrates through coupling with the pyruvate kinase/lactate dehydrogenase system (e.g., Schindler et al. Science (2000) 289: 1938-1942). In this assay, the oxidation of NADH (thus the decrease at A340 nm) was continuously monitored spectrophometrically. The reaction mixture (100 μl) contained unphosphorylated KIT (12 nM), polyE4Y (1 mg/mL), MgCl2 (10 mM), pyruvate kinase (4 units), lactate dehydrogenase (0.7 units), phosphoenol pyruvate (1 mM), and NADH (0.28 mM) and ATP (2000 μM) in 90 mM Tris buffer containing 0.2% octyl-glucoside and 1% DMSO, pH 7.5. The inhibition reaction was started by mixing serial diluted test compound with the above reaction mixture. The absorption at 340 nm was monitored continuously for 4 hours at 30° C. on Synergy 2 plate reader (BioTech). Reaction rates around 3 to 4 h time frame were used to calculate % inhibitions, from which IC50 values were generated.
# [3] = target: T3, unphosphorylated c-FMS kinase (uFMS, Seq. ID no. 1) (Homo sapiens, UniProt P07333); experiment: uFMS kinase enzymatic assay (pyruvate kinase/lactate dehydrogenase coupled); type: biochemical; settings: ATP 500 μM, rate 3 to 4 h
# T3 construct: purchased Millipore
# T3 sequence (P07333 538-972): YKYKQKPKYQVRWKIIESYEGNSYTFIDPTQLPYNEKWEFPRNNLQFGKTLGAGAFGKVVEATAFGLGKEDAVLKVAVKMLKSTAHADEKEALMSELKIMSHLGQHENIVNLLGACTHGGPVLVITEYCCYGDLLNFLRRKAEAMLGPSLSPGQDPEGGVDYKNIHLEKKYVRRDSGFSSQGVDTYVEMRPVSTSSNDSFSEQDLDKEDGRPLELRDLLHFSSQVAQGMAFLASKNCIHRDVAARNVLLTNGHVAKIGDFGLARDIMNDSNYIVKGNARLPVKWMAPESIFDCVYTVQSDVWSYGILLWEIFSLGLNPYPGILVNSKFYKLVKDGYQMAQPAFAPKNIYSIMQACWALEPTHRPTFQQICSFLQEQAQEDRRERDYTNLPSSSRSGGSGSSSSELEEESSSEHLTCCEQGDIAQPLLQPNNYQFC
# Method: uFMS Kinase (Seq. ID No. 1) Assay
# Activity of unphosphorylated c-FMS kinase (uFMS, Seq. ID no. 1) was determined by following the production of ADP from the FMS kinase reaction with ATP and poly E4Y as substrates through coupling with the pyruvate kinase/lactate dehydrogenase system (e.g., Schindler et al. Science (2000) 289: 1938-1942). In this assay, the oxidation of NADH (thus the decrease at A340 nm) was continuously monitored spectrophometrically. The reaction mixture (100 μL) contained FMS (purchased from Millipore) (10 nM), polyE4Y (1 mg/mL), MgCl2 (10 mM), pyruvate kinase (4 units), lactate dehydrogenase (0.7 units), phosphoenol pyruvate (1 mM), NADH (0.28 mM) and ATP (500 μM) in 90 mM Tris buffer containing 0.2% octyl-glucoside and 1% DMSO, pH 7.5. The inhibition reaction was started by mixing serial diluted test compound with the above reaction mixture. The absorption at 340 nm was monitored continuously for 4 hours at 30° C. on Synergy 2 plate reader. The reaction rate was calculated using the 3 to 4 h time frame. Percent inhibition was obtained by comparison of reaction rate with that of a control (i.e. in the absence of test compound). IC50 values were calculated from a series of percent inhibition values determined at a range of inhibitor concentrations using software routines as implemented in the GraphPad Prism software package.
# T2 sequence (P10721 with tags, fused parts or gaps): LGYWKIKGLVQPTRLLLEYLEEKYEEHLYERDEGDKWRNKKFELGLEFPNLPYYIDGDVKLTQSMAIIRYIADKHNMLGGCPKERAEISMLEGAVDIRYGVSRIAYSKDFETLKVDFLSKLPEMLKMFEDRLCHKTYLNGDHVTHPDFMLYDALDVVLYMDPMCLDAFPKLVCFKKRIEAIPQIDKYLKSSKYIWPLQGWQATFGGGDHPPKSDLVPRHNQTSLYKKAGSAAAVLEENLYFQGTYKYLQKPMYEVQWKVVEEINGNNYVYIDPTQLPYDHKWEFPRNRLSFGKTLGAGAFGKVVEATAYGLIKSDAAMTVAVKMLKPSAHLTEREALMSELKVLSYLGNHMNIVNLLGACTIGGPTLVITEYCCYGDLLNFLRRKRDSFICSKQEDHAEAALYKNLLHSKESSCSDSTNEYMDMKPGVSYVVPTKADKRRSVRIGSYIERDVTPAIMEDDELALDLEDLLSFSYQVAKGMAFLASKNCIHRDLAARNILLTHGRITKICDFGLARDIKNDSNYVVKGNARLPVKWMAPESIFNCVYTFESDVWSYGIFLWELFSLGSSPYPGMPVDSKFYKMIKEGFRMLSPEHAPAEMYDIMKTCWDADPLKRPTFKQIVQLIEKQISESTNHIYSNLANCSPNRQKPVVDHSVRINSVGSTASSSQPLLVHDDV
# T1 sequence (P09619 557-1106): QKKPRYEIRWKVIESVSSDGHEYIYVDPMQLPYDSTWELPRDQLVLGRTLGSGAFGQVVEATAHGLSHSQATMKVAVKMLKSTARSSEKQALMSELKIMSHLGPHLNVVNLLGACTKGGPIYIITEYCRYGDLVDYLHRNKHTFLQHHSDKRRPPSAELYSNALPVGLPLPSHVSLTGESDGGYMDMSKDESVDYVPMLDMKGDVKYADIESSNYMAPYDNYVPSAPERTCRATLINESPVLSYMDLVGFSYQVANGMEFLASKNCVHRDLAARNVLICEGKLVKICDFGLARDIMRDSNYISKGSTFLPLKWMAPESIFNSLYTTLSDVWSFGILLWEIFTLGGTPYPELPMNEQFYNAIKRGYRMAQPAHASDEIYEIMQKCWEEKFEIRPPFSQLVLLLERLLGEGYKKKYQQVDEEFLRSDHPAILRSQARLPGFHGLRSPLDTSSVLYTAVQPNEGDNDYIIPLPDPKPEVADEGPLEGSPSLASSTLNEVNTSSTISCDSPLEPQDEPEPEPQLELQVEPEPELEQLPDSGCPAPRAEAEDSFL
SMILES,IC50 (M-NFS-60 cells) [nM],IC50 (osteoclast precursors) [nM],IC50 [1] [nM],IC50 [2] [nM],IC50 [3] [nM]
"CCc1nc(-n2nc(C(C)(C)C)[nH]c2=O)ccc1Oc1ccnc(-c2cnn(C)c2)c1 [Example 8, 3-(tert-butyl)-1-(6-ethyl-5-((2-(1-methyl-1H-pyrazol-4-yl)pyridin-4-yl)oxy)pyridin-2-yl)-1H-1,2,4-triazol-5(4H)-one]",100 to 1000,100 to 1000,> 1000,> 1000,100 to 1000
"CC(=O)Nc1cc(Oc2ccc(-n3nc(C(C)(C)C)[nH]c3=O)nc2C)ccn1 [Example 11, N-(4-((6-(3-(tert-butyl)-5-oxo-4,5-dihydro-1H-1,2,4-triazol-1-yl)-2-methylpyridin-3-yl)oxy)pyridin-2-yl)acetamide]",100 to 1000,100 to 1000,> 1000,> 1000,10 to 100
"Cc1ncc(-c2cc(Oc3ccc(-n4nc(C(C)(C)C)[nH]c4=O)nc3C)ccn2)s1 [Example 12, 3-(tert-butyl)-1-(6-methyl-5-((2-(2-methylthiazol-5-yl)pyridin-4-yl)oxy)pyridin-2-yl)-1H-1,2,4-triazol-5(4H)-one]",10 to 100,10 to 100,> 1000,100 to 1000,10 to 100
"COCCc1nn(-c2ccc(Oc3ccnc(-c4cnn(C)c4)c3)c(C)n2)c(=O)[nH]1 [Example 15, 3-(2-methoxyethyl)-1-(6-methyl-5-((2-(1-methyl-1H-pyrazol-4-yl)pyridin-4-yl)oxy)pyridin-2-yl)-1H-1,2,4-triazol-5(4H)-one]",> 1000,100 to 1000,> 1000,> 1000,10 to 100
"COCc1nn(-c2ccc(Oc3ccnc(-c4cnn(C)c4)c3)c(C)n2)c(=O)[nH]1 [Example 17, 3-(methoxymethyl)-1-(6-methyl-5-((2-(1-methyl-1H-pyrazol-4-yl)pyridin-4-yl)oxy)pyridin-2-yl)-1H-1,2,4-triazol-5(4H)-one]",> 1000,> 1000,,> 1000,100 to 1000
"Cc1nc(-n2nc(C(C)(C)C)[nH]c2=O)ccc1Oc1ccnc(-c2cnn(CCO)c2)c1 [Example 18, 3-(tert-butyl)-1-(5-((2-(1-(2-hydroxyethyl)-1H-pyrazol-4-yl)pyridin-4-yl)oxy)-6-methylpyridin-2-yl)-1H-1,2,4-triazol-5(4H)-one]",100 to 1000,100 to 1000,> 1000,100 to 1000,10 to 100
"Cc1cn(-c2cc(Oc3ccc(-n4nc(C(C)(C)C)[nH]c4=O)nc3C)ccn2)cn1 [Example 19, 3-(tert-butyl)-1-(6-methyl-5-((2-(4-methyl-1H-imidazol-1-yl)pyridin-4-yl)oxy)pyridin-2-yl)-1H-1,2,4-triazol-5(4H)-one]",100 to 1000,100 to 1000,> 1000,> 1000,10 to 100
"Cc1nc(-n2nc(C(C)(C)C)[nH]c2=O)ccc1Oc1ccnc(NC(=O)C2CCN(C)CC2)c1 [Example 21, N-(4-((6(3-(tert-butyl)-5-oxo-4,5-dihydro-1H-1,2,4-triazol-1-yl)-2-methylpyridin-3-yl)oxy)pyridin-2-yl)-1-methylpiperidine-4-carboxamide]",> 1000,100 to 1000,> 1000,> 1000,100 to 1000
"Cc1nc(-n2nc(C(C)(C)C)[nH]c2=O)ccc1Oc1ccnc(-c2cn(C)cn2)c1 [Example 23, 3-(tert-butyl)-1-(6-methyl-5-((2-(1-methyl-1H-imidazol-4-yl)pyridin-4-yl)oxy)pyridin-2-yl)-1H-1,2,4-triazol-5(4H)-one]",100 to 1000,10 to 100,> 1000,> 1000,10 to 100
"Cc1nc(-n2nc(C(C)(C)C)[nH]c2=O)ccc1Oc1ccnc(-c2cn[nH]c2)c1 [Example 24, 1-(5-((2-(1H-pyrazol-4-yl)pyridin-4-yl)oxy)-6-methylpyridin-2-yl)-3-(tert-butyl)-1H-1,2,4-triazol-5(4H)-one]",100 to 1000,100 to 1000,> 1000,> 1000,100 to 1000
"CNC(=O)c1cc(Oc2ccc(-n3nc(C(C)(C)C)[nH]c3=O)nc2)ccn1 [Example 26, 4-((6-(3-(tert-butyl)-5-oxo-4,5-dihydro-1H-1,2,4-triazol-1-yl)pyridin-3-yl)oxy)-N-methylpicolinamide]",> 1000,100 to 1000,> 1000,> 1000,10 to 100

# From patent US9193719B2, “1,2,4-triazol-5-ones and analogs exhibiting anti-cancer and anti-proliferative activities” (Deciphera Pharmaceuticals, LLC, priority 2013, dated 2015)
